# Measured values reported in patent publication US20210085692A1, “AGENTS, COMPOSITIONS AND METHODS FOR TREATING AND PREVENTING ALZHEIMER'S DISEASE” (UNIVERSITY OF SOUTHERN CALIFORNIA, priority 2018, published 2021).
# Columns and labels:
# [1] = Phase 1 multiple ascending dose clinical trial: plasma levels after weekly intravenous infusion; format: in vivo, human; details: for Cmax: human, plasma
# Experimental: (§1) Clinical Trials were carried out in adult humans (see gov Identifier: NCT02221622 for the ongoing Phase 1b/2a clinical trial at https://clinicaltrials.gov/ct2/show/NCT02221622).
# (§2) A randomized double-blind, placebo controlled, multiple ascending dose, phase 1 clinical trial was conducted in patients with mild cognitive impairment due to AD or mild AD or dementia.
# (§3) Participants were randomly assigned to receive weekly intravenous infusion of either 2 mg, 4 mg, or 6 mg of Allo or placebo (N=6/group) for 12 weeks. Primary outcomes were to assess safety, tolerability and determine maximally tolerated dose (MTD). Secondary exploratory outcomes were the feasibility and impact of Allo on MRI indicators of regeneration and cognition. Lymphocyte derived iPSCs differentiated to neural stem cells were used to develop biomarker strategy to identify potential regenerative responders.
# The standard Phase I dose escalation double-blind, placebo-controlled, single site trial included 24 research participants in three dose cohorts. Each cohort included 8 research participants randomized to drug or placebo in a 6:2 allocation ratio. Cohorts as follows: • Dosing cohort 1) 2 mg Allo or placebo • Dosing cohort 2) 4 mg Allo or placebo • Dosing cohort 3) 6 mg Allo or placebo Each dose cohort was separated by 6 weeks to process, obtain, and assess all safety and tolerability data.
# The trial evaluated three doses (2.0, 4.0 and 6.0 mg) of allopregnanolone (Allo) in a delivery vehicle of 6% sulfobutylether-β-cyclodextrin and 0.9% sodium chloride and placebo containing an equal volume of 0.9% sodium chloride for injection USP administered by intravenous sinfusion once per week for 12 weeks. Although the dosing study is not powered to detect statistically significant treatment differences on MRI outcomes and cognition, the MRI is required per FDA safety concerns with respect to amyloid-related imaging abnormalities, such as micro hemorrhages, as per FDA correspondence. Grouped differences from placebo-treated participants were evaluated in an exploratory fashion using the outcomes planned for the larger phase 2, proof of concept trial in order to obtain parameter estimates for the trial design.]
# Allo dose selection of 2.0, 4.0 and 6.0 mg was determined by pre-clinical dose response analyses for neurogenesis, an IV bridging study in 3×TgAD mice, prior clinical studies, physiologically-based pharmacokinetics (PBPK) modeling and simulations of pharmacodynamic responses using available pre-clinical and clinical data of non-sedative to mildly sedative doses Planned study Allo doses are within the FDA requirement to not exceed 157 nmol/L (50 ng/ml) plasma concentration Planned Allo dose equivalencies based on 70 kg human are: 2.0 mg=0.028 mg/kg; 4.0 mg=0.056/mg/kg; 6.0 mg=0.084 mg/kg. With respect to safety, intravenous doses of Allo in the same dose range as those for this trial have been administered previously with acceptable safety and. […] Allo in sulfobutylether-β-cyclodextrin and 0.9% sodium chloride formulation was administered intravenously over 30 minutes once per week for 12 weeks. Participants were monitored under medical supervision for a minimum of two hours after each dose. The regimen for Allo administration is based on preclinical analyses that indicate that a once per week treatment regimen results in increased neurogenesis with reduction in AD pathology.
# [2] = system: patients with mild cognitive impairment due to AD or mild AD or dementia; experiment: Phase 1 clinical trial: safety, tolerability and maximally tolerated dose; format: in vivo, human
# Experimental: as §1, §2
# Participants were randomly assigned to receive weekly intravenous infusion of either 2 mg, 4 mg, or 6 mg of Allo or placebo (N=6/group) for 12 weeks. Primary outcomes were to assess safety, tolerability and determine maximally tolerated dose (MTD). Secondary exploratory outcomes were the feasibility and impact of Allo on MRI indicators of regeneration and cognition. […]
# The trial evaluated three doses (2.0, 4.0 and 6.0 mg) of allopregnanolone (Allo) in a delivery vehicle of 6% sulfobutylether-β-cyclodextrin and 0.9% sodium chloride and placebo containing an equal volume of 0.9% sodium chloride for injection USP administered by intravenous sinfusion once per week for 12 weeks. […] Grouped differences from placebo-treated participants were evaluated in an exploratory fashion using the outcomes planned for the larger phase 2, proof of concept trial in order to obtain parameter estimates for the trial design.] […]
# [3] = system: patients with mild cognitive impairment due to AD or mild AD or dementia; experiment: Phase 1 clinical trial: MRI indicators of regeneration (gray matter, hippocampal volume); format: in vivo, human
# [4] = system: patients with mild cognitive impairment due to AD or mild AD or dementia; experiment: Phase 1 clinical trial: cognition (ADAScog14, Cog state); format: in vivo, human; details: 12 weeks, once per week
# Experimental: as §2, §3
# The standard Phase I dose escalation double-blind, placebo-controlled, single site trial included 24 research participants in three dose cohorts. […]
# The trial evaluated three doses (2.0, 4.0 and 6.0 mg) of allopregnanolone (Allo) in a delivery vehicle of 6% sulfobutylether-β-cyclodextrin and 0.9% sodium chloride and placebo containing an equal volume of 0.9% sodium chloride for injection USP administered by intravenous sinfusion once per week for 12 weeks. […] Grouped differences from placebo-treated participants were evaluated in an exploratory fashion using the outcomes planned for the larger phase 2, proof of concept trial in order to obtain parameter estimates for the trial design.]
# [5] = system: humanized ApoE3,3, ApoE4,4 and ApoE3,4 mice; experiment: Novel Object Recognition (NOR) memory test; format: in vivo; details: for Novel Object Discrimination Index / Novel Object Exploration time: vs saline
# Experimental: To access impact of Allopregnanolone (Allo) on memory function, humanized ApoE3,3, ApoE4,4 and ApoE3,4 mice were tested using Novel Object Recognition (NOR) in accordance with published literature (Antunes and Biala, Cogn Process. 2012 May; 13(2): 93-110; Ennaceur, Behav Brain Res. 2010 Dec. 31; 215(2):244-54. doi: 10.1016/j.bbr.2009.12.036. Epub 2010 Jan. 7; Leger et al., Nat Protoc. 2013 December; 8(12):2531-7. doi: 10.1038/nprot.2013.155. Epub 2013 Nov. 21; Piterkin et al., Learn. Mem., 15 (2008), pp. 785-791; Taglialatela et al., Behav Brain Res. 200(1): 95-99. 2009).
# Behavioral NOR testing was conducted following 24 weekly injections of Allopregnanolone (Allo; 1.5 mg/mL) or saline (0.9%). The Allo and saline used to treat the mice were identical to the Allo and saline used in the clinical trial (ClinicalTrials.gov Identifier: NCT02221622).
# Behavioral testing and analysis of behavioral outcomes were conducted blind to the experimental condition. Code for treatment groups was unblinded for statistical analyses by analyst who was independent of behavioral testing.
# Difference in exploration time (in seconds) was calculated by subtracting the time spent exploring the familiar object from that of the novel object (Tn−Tf) and denoted by ‘Df’. Second, a ratio of the difference in exploration time to the total time spent exploring was calculated (Tn−Tf/Tn+Tf) and denoted by Discrimination Index (DI). The DI can vary between +1 and −1, where a positive score indicates more time spent with the novel object, a negative score indicates more time spent with the familiar object, and a zero score indicates a null preference (Antunes and Biala, 2012). The DI adjusts for difference in total exploration time (Broadbent et al.). Statistical analyses were conducted using Mann-Whitney test and p-value of less than 0.05 was considered significant.
# [6] = intravenous doses in the same dose range, earlier studies; cited from earlier work
# [7] = ApoE3:3 females and males, 24 weekly injections
smiles,measurement,setting,value
"CC(=O)[C@H]1CC[C@H]2[C@@H]3CC[C@H]4C[C@H](O)CC[C@]4(C)[C@H]3CC[C@]12C [Allo, 3α-hydroxy-5α-pregnan-20-one]",Correlation (R) of Cmax with Allo delivered in mg/kg dose,"[1]; 2, 4 and 6 mg cohorts",0.77
same,Time to peak plasma levels,"[1]; from start of 30 minute intravenous infusion, AD patients",≤ 30 min
same,Cmax,[1]; 2 mg intravenous infusion,63 ± 21 nM
same,Cmax,[1]; 4 mg intravenous infusion,130 ± 26 nM
same,Cmax,[1]; 6 mg intravenous infusion,248 ± 84 nM
same,"MTD, established by onset of sedation",[2]; intravenous infusion,> 6 mg
same,"Adverse effects, serious adverse events, ARIA","[2]; twelve week exposure, multiple doses once per week","no reportable adverse effects, serious adverse events or ARIA"
same,Left hippocampal volume (subfield analysis),"[3]; Allo 4 mg cohort, 12 weeks",increase in left hippocampal volume
same,Brain mass,[3]; human subjects over 55 years having Apo E4 genetic marker,increased brain mass
same,MRI based indicators of gray matter volume,"[3]; structural analysis, 12 weeks",consistent with regeneration in select brain regions
same,Cognitive function measured by ADAScog14,[4],not improved
same,Cog state indicators,[4]; some indicators,consistent with improvement
same,Novel Object Discrimination Index,[5]; [7],no effect
same,Novel Object Exploration time,[5]; [7],"no effect, either positive or negative"
same,Exploration of the novel object,"[5]; ApoE 3:4 female mice, p=0.05",significantly increased
same,Ability to discriminate between novel vs familiar object (Discrimination Index),"[5]; ApoE 3:4 female mice, p=0.06",trended towards a significant increase
same,Novel Object Discrimination Index,"[5]; ApoE 4/4 females and males, p<0.05",significantly increased
same,Novel Object Exploration time,"[5]; ApoE 4:4 females, 24 weekly injections",significantly increased
same,Novel Object Exploration time,"[5]; ApoE4:4 males, 24 weekly injections",trended towards an increase
same,"TEAEs (nausea, mild sedation, fatigue, flushing, anxiety)",[6],mild and transient
